“And” between values parts separate entries of the source, which are not always exact repeats. Equal entries are not always repeated.
Assays:
LC3-II = assay: Western blot and densitometry of LC3-I/II (autophagy); type: cell-based, human; conditions: for LC3-II levels compared to the control: agent alone; for densitometry WB, relative to NT = 1: single blot
From the text: Established protocols were used to prepare cell lysates and perform immunoblot analysis. Primary antibodies used include: rabbit LC3 (Cat. #: MBPM036; 1:2,000) from Abacus (Brisbane, Australia) and mouse β-actin (Cat. #: A1978, 1:10,000) from Sigma-Aldrich. The following secondary antibodies were utilized: horseradish peroxidase (HRP)-conjugated anti-rabbit (Cat. #: A6154, […]) and anti-mouse (Cat. #: A4416, 1:10,000) antibodies from Sigma-Aldrich. To ensure equal loading of proteins, membranes were probed for β-actin.

[1] = Ascorbate oxidation assay (redox activity of iron complexes); type: biochemical; conditions: for %Fe 30min: ascorbate oxidation as % of the Fe control (Fe 100%): IBE 0.1, 30 min;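 for %Fe 30min (ascorbate oxidation, Fe 100%), průměr: IBE 3 means excess free chelator over iron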;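 for %Fe 30min (ascorbate oxidation, Fe 100%): IBE 3 means excess free chelator over iron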;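 for %Fe 30min: ascorbate oxidation as % of the Fe control (Fe 100%): IBE 0.1 means iron-binding equivalents with iron in excess over chelator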;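 for Change of absorbance, odečet 0 (time 0 subtracted), čas 10, průměr: IBE 3 means excess free chelator over 10 µM FeCl3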;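 for Change of absorbance, odečet 0 (time 0 subtracted), čas 10: IBE 3 means excess free chelator over 10 µM FeCl3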
Protocol: The ascorbate oxidation assay was used to assess the redox activity of the iron complexes of the chelators using an established protocol. In brief, 100 μM ascorbic acid was prepared immediately prior to the experiment and incubated either alone or in the presence of 10 μM FeCl3 in a 50-fold molar excess (500 μM) of citrate and the chelators. Chelators were assayed at iron-binding equivalents (IBE) of 0.1 (excess of iron), 1 (fully coordinated iron—chelator complexes) and 3 (excess of free chelator). […] The decrease of absorbance between the two time points was calculated and expressed as a percentage of control without the chelator.

[2] = 72 h/37°C, MCF-7, Bp4eT 10 and 100 nM, Dp44mT 100 nM, Baf A1 100 nM
[3] = Supplementary Fig 2, Baf+ NT (Baf alone)
[4] = sheet IBE 1, time 10, replicates
[5] = sheet IBE 1, time 20, replicates
[6] = sheet IBE 1, time 30, replicates
[7] = Supplementary Fig 2, Baf+, 10nM
[8] = Supplementary Fig 2, Baf+, 5uM (5M [sic] for Bp4eT)

## CO/C1=C\C(C)=C\[C@@H](C)[C@@H](O)[C@@H](C)C/C(C)=C/C=C/[C@H](OC)[C@@H]([C@@H](C)[C@@H](O)[C@H](C)[C@@]2(O)C[C@@H](O)[C@H](C)[C@@H](C(C)C)O2)OC1=O [Baf A1, Bafilomycin A1, reference compound]
LC3-II; [2]
  LC3-II levels compared to the control: marked and significant (p < 0.001) increase

## CO/C1=C\C(C)=C\[C@@H](C)[C@@H](O)[C@@H](C)C/C(C)=C/C=C/[C@H](OC)[C@@H]([C@@H](C)[C@@H](O)[C@H](C)[C@@]2(O)C[C@@H](O)[C@H](C)[C@@H](C(C)C)O2)OC1=O [Baf]
LC3-II; Fig 7E, Baf alone
  densitometry WB, relative to NT = 1, Average: 452.435
  densitometry WB, relative to NT = 1: 493.767 and 401.641 and 461.896
LC3-II; [3]
  densitometry WB, relative to NT = 1, Average: 120.681
  densitometry WB, relative to NT = 1: 125.194 and 89.4619 and 147.387

## O=C(O)CN(CCN(CC(=O)O)CC(=O)O)CC(=O)O [EDTA, reference compound]
[1]; IBE 0.1
  Ascorbate oxidation, % of the control: 161%
[1]; mean (průměr)
  %Fe 30min: ascorbate oxidation as % of the Fe control (Fe 100%): 160.9%
[1]; single wells
  %Fe 30min: ascorbate oxidation as % of the Fe control (Fe 100%): 159.4% and 155.2% and 146.4% and 180.8% and 176.8% and 168.8%
[1]; IBE 0.1, time 10, mean (průměr)
  Change of absorbance after subtraction of time 0 (odečet 0): -0.05129
[1]; IBE 0.1, time 20, mean (průměr)
  Change of absorbance after subtraction of time 0 (odečet 0): -0.1014
[1]; IBE 0.1, time 30, mean (průměr)
  Change of absorbance after subtraction of time 0 (odečet 0): -0.1524
[1]; IBE 0.1, čas 0 (time 0), mean (průměr)
  Absorbance (ascorbate, λ = 265 nm): 0.8103
[1]; IBE 0.1, čas 0 (time 0), single wells
  Absorbance (ascorbate, λ = 265 nm): 0.8054 and 0.8016 and 0.8149 and 0.8186 and 0.808 and 0.8024
[1]; IBE 0.1, čas 10 (time 10), mean (průměr)
  Absorbance (ascorbate, λ = 265 nm): 0.759
[1]; IBE 0.1, čas 10 (time 10), single wells
  Absorbance (ascorbate, λ = 265 nm): 0.7602 and 0.7682 and 0.7617 and 0.7478 and 0.7502 and 0.7523
[1]; IBE 0.1, čas 20 (time 20), mean (průměr)
  Absorbance (ascorbate, λ = 265 nm): 0.7088
[1]; IBE 0.1, čas 20 (time 20), single wells
  Absorbance (ascorbate, λ = 265 nm): 0.708 and 0.7209 and 0.713 and 0.6947 and 0.6986 and 0.7025
[1]; IBE 0.1, čas 30 (time 30), mean (průměr)
  Absorbance (ascorbate, λ = 265 nm): 0.6579
[1]; IBE 0.1, čas 30 (time 30), single wells
  Absorbance (ascorbate, λ = 265 nm): 0.6595 and 0.6673 and 0.6654 and 0.6401 and 0.6465 and 0.65
[1]; IBE 1
  Ascorbate oxidation, % of the control: 417%
[1]; IBE 3
  Ascorbate oxidation, % of the control: 427%
[1]; sheet IBE 1, 30min, Fe 100%, mean
  %Fe 30min (ascorbate oxidation, Fe = 100%), průměr (mean): 416.7%
[1]; sheet IBE 1, 30min, Fe 100%, replicates
  %Fe 30min (ascorbate oxidation, Fe = 100%), single replicates: 441% and 427.1% and 415.6% and 401.4% and 393.2% and 387.9%
[1]; sheet IBE 1, time 0, mean of 9 readings
  raw reading at čas 0 (time 0), průměr (mean): 0.6818
[1]; sheet IBE 1, time 0, replicates of 2014-03-24 (two runs) and 2014-03-25
  raw reading at čas 0 (time 0), single replicates: 0.698 and 0.6881 and 0.6774 and 0.6781 and 0.6723 and 0.6948
[1]; sheet IBE 1, time 10, mean
  odečet 0 (reading minus time 0 reading) at čas 10, průměr (mean): -0.1456
[1]; sheet IBE 1, time 10, mean of 9 readings
  raw reading at čas 10 (time 10), průměr (mean): 0.5362
[1]; [4]
  odečet 0 (reading minus time 0 reading) at čas 10, single replicates: -0.1492 and -0.1466 and -0.1396 and -0.1522 and -0.1449 and -0.1427
  raw reading at čas 10 (time 10), single replicates: 0.5282 and 0.5314 and 0.5326 and 0.5426 and 0.5531 and 0.5454
[1]; sheet IBE 1, time 20, mean
  odečet 0 (reading minus time 0 reading) at čas 20, průměr (mean): -0.2713
[1]; sheet IBE 1, time 20, mean of 9 readings
  raw reading at čas 20 (time 20), průměr (mean): 0.4105
[1]; [5]
  odečet 0 (reading minus time 0 reading) at čas 20, single replicates: -0.2803 and -0.2685 and -0.2607 and -0.2802 and -0.2739 and -0.2684
  raw reading at čas 20 (time 20), single replicates: 0.3971 and 0.4095 and 0.4115 and 0.4146 and 0.424 and 0.4197
[1]; sheet IBE 1, time 30, mean
  odečet 0 (reading minus time 0 reading) at čas 30, průměr (mean): -0.3705
[1]; sheet IBE 1, time 30, mean of 9 readings
  raw reading at čas 30 (time 30), průměr (mean): 0.3114
[1]; [6]
  odečet 0 (reading minus time 0 reading) at čas 30, single replicates: -0.381 and -0.369 and -0.359 and -0.3788 and -0.3711 and -0.366
  raw reading at čas 30 (time 30), single replicates: 0.2963 and 0.3091 and 0.3132 and 0.316 and 0.3269 and 0.322
[1]; sheet IBE 3, 30min, Fe alone = 100%, mean (průměr) of the 9 replicates
  %Fe 30min (ascorbate oxidation, Fe 100%), průměr: 426.7%
[1]; sheet IBE 3, 30min, Fe alone = 100%, single replicates
  %Fe 30min (ascorbate oxidation, Fe 100%): 442% and 427.3% and 421.9% and 434.5% and 414.3% and 409.1%
[1]; sheet IBE 3, time 10 minus time 0, mean (průměr)
  Change of absorbance, odečet 0 (time 0 subtracted), čas 10, průměr: -0.1585
[1]; sheet IBE 3, time 10 minus time 0, single replicates
  Change of absorbance, odečet 0 (time 0 subtracted), čas 10: -0.1642 and -0.1578 and -0.1558 and -0.1617 and -0.1557 and -0.1533
[1]; sheet IBE 3, time 20 minus time 0, mean (průměr)
  Change of absorbance, odečet 0 (time 0 subtracted), čas 20, průměr: -0.2896
[1]; sheet IBE 3, time 20 minus time 0, single replicates
  Change of absorbance, odečet 0 (time 0 subtracted), čas 20: -0.3027 and -0.2894 and -0.2865 and -0.2919 and -0.2818 and -0.2751
[1]; sheet IBE 3, time 30 minus time 0, mean (průměr)
  Change of absorbance, odečet 0 (time 0 subtracted), čas 30, průměr: -0.3943
[1]; sheet IBE 3, time 30 minus time 0, single replicates
  Change of absorbance, odečet 0 (time 0 subtracted), čas 30: -0.4103 and -0.3966 and -0.3916 and -0.3977 and -0.3792 and -0.3744

## CN(C)C(=S)NN=C(c1ccccn1)c1ccccn1 [Dp44mT, di-2-pyridylketone 4,4-dimethyl-3-thiosemicarbazone, reference compound]
LC3-II; 24 h/37°C, MCF-7, agent 5 μM, Baf A1 100 nM
  LC3-II with Baf A1 relative to Baf A1 and control: significant (p < 0.05) increase
LC3-II; 24 h/37°C, MCF-7, agent 10 and 100 nM, Baf A1 100 nM
  LC3II expression with Baf A1 relative to Baf A1 and control: did not lead to a significant (p > 0.05) increase
LC3-II; 72 h/37°C, MCF-7, Baf A1 100 nM, Bp4eT 10 and 100 nM, Dp44mT 100 nM
  LC3-II levels upon co-incubation with Baf A1, compared to Baf A1 alone: significant (p < 0.001–0.05) suppression
LC3-II; Fig 7E, 100nM
  densitometry WB, relative to NT = 1, Average: 4.573
LC3-II; Supplementary Fig 2, 10nM
  densitometry WB, relative to NT = 1, Average: 1.013
LC3-II; Supplementary Fig 2, 100nM
  densitometry WB, relative to NT = 1, Average: 0.7153
LC3-II; Supplementary Fig 2, 5uM (5M [sic] for Bp4eT)
  densitometry WB, relative to NT = 1, Average: 2.9502
LC3-II; [7]
  densitometry WB, relative to NT = 1, Average: 97.312
  densitometry WB, relative to NT = 1: 76.4364 and 79.3437 and 136.156
LC3-II; Supplementary Fig 2, Baf+, 100nM
  densitometry WB, relative to NT = 1, Average: 73.568
LC3-II; [8]
  densitometry WB, relative to NT = 1, Average: 249.127
  densitometry WB, relative to NT = 1: 275.571 and 204.438 and 267.371
LC3-II; [2]
  LC3-II levels compared to the control: slight, but significant (p < 0.05) increase

From paper PMC4604124, “In Vitro Characterization of the Pharmacological Properties of the Anti-Cancer Chelator, Bp4eT, and Its Phase I Metabolites” (PLoS ONE, 2015)
